# Counter-ions that a name gives are not always drawn.
# Biological target: T1, human TLR8 (Homo sapiens, UniProt Q9NR97)
# T1 construct: host or cells: HEK-Blue cells
# T1 sequence (Q9NR97 27-1041): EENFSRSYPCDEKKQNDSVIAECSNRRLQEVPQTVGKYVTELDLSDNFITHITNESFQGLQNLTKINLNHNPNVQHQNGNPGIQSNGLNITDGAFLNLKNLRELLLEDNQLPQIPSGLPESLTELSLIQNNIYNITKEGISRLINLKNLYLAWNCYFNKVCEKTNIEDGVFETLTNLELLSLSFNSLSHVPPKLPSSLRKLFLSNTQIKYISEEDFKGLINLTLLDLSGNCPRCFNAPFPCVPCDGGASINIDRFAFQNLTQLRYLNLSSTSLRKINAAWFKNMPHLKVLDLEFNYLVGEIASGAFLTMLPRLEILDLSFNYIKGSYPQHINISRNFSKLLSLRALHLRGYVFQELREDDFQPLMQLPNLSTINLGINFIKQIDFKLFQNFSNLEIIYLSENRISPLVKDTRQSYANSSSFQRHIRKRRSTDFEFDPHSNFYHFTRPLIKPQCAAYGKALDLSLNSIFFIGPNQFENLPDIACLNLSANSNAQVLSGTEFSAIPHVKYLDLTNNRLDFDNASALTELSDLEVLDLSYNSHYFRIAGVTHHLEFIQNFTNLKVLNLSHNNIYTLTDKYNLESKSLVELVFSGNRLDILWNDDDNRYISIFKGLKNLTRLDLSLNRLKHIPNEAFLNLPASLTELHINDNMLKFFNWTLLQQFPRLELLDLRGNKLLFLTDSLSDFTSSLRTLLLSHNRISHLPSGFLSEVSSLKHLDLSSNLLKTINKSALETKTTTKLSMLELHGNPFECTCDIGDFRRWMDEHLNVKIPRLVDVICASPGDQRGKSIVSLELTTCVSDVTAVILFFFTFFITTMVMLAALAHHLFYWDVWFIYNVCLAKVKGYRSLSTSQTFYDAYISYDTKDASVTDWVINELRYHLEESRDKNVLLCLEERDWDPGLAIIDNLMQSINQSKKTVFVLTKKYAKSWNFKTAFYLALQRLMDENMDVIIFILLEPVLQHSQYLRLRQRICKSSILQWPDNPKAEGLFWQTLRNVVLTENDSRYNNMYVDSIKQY
# Experiment: TLR8 inhibition reporter assay (HEK-Blue SEAP)
# Type: cell-based
# Settings: HEK-Blue cells overexpressing human TLR8, R848 15.9 μM, 22 hour incubation
# Outline: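 Human TLR7/8/9 HEK-Blue reporter lines; dose range 0.05 nM–50 μM; 30 min RT preincubation; stimulus gardiquimod 7.5 μM / R848 15.9 μM / ODN2006 5 nM respectively; 22 h, 37 °C; SEAP detected colorimetrically.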
row,SMILES,IC50 [nM]
1,"CCN[C@H]1CC[C@H](n2c(=O)[nH]c3cc(-c4cc(C)c5ncnn5c4)c(C)cc32)CC1 [Example 24, 1-((1r,4s)-4-(ethylamino)cyclohexyl)-6-methyl-5-(8-methyl-[1,2,4]triazolo[1,5-a]pyridin-6-yl)-1,3-dihydro-2H-benzo[d]imidazol-2-one]",6.74
2,"COC1CN(C2CCC(n3c(=O)[nH]c4cc(-c5cn6ncnc6c(C)c5C)c(C(C)C)cc43)CC2)C1 (single isomer, unassigned) [Example 277, 5-(7,8-dimethyl-[1,2,4]triazolo[1,5-a]pyridin-6-yl)-6-isopropyl-1-(4-(3-methoxyazetidin-1-yl)cyclohexyl)-1,3-dihydro-2H-benzo[d]imidazol-2-one]",0.74
3,"COc1cc(-c2cc3[nH]c(=O)n(C4CCC(N(C)CCC(F)(F)F)CC4)c3cc2C(C)C)cn2ncnc12 (single isomer, unassigned) [Example 249, 6-isopropyl-5-(8-methoxy-[1,2,4]triazolo[1,5-a]pyridin-6-yl)-1-(4-(methyl(3,3,3-trifluoropropyl)amino)cyclohexyl)-1,3-dihydro-2H-benzo[d]imidazol-2-one]",0.08
4,"COc1cc(-c2cc3[nH]c(=O)n(C4CCC(N5CCC(F)(F)C5)CC4)c3cc2C(C)C)cn2ncnc12 (single isomer, unassigned) [Example 294, 1-(4-(3,3-difluoropyrrolidin-1-yl)cyclohexyl)-6-isopropyl-5-(8-methoxy-[1,2,4]triazolo[1,5-a]pyridin-6-yl)-1,3-dihydro-2H-benzo[d]imidazol-2-one]",3.14
5,"Cc1c(-c2cc3[nH]c(=O)n(C4CCC(N5CCC6(CC5)COC6)CC4)c3cc2C(C)C)cn2ncnc2c1C (single isomer, unassigned) [Example 282, 1-(4-(2-oxa-7-azaspiro[3.5]nonan-7-yl)cyclohexyl)-5-(7,8-dimethyl-[1,2,4]triazolo[1,5-a]pyridin-6-yl)-6-isopropyl-1,3-dihydro-2H-benzo[d]imidazol-2-one]",0.51
6,"COc1cc(-c2cc3[nH]c(=O)n(C4CCC(N5CC[C@H](F)C5)CC4)c3cc2C(C)C)cn2ncnc12 (stereo partly drawn) [Example 286, (S)-1-(4-(3-fluoropyrrolidin-1-yl)cyclohexyl)-6-isopropyl-5-(8-methoxy-[1,2,4]triazolo[1,5-a]pyridin-6-yl)-1,3-dihydro-2H-benzo[d]imidazol-2-one]",0.9
7,"COc1cc(-c2cc3[nH]c(=O)n(C4CCC(N5C6CCC5COC6)CC4)c3cc2C(C)C)cn2ncnc12 (single isomer, unassigned) [Example 252, 1-(4-(3-oxa-8-azabicyclo[3.2.1]octan-8-yl)cyclohexyl)-6-isopropyl-5-(8-methoxy-[1,2,4]triazolo[1,5-a]pyridin-6-yl)-1,3-dihydro-2H-benzo[d]imidazol-2-one]",24.8
8,"Cc1cc(-c2cc(C)c3ncnn3c2)cc2[nH]c(=O)n(C3CCNCC3)c12 [106 F, 7-methyl-5-(8-methyl-[1,2,4]triazolo[1,5-a]pyridin-6-yl)-1-(piperidin-4-yl)-1,3-dihydro-2H-benzo[d]imidazol-2-one]",433
9,"Cc1cc2c(cc1-c1cc(C)c3ncnn3c1)[nH]c(=O)n2[C@@H]1CCCN(CC(C)(C)C)C1 [Example 26, (R)-6-methyl-5-(8-methyl-[1,2,4]triazolo[1,5-a]pyridin-6-yl)-1-(1-neopentylpiperidin-3-yl)-1,3-dihydro-2H-benzo[d]imidazol-2-one]",384
10,"Cc1cc2c(cc1-c1cc(C)c3ncnn3c1)[nH]c(=O)n2[C@H]1CC[C@H](NC(C)C)CC1 [Example 25, 1-((1r,4s)-4-(isopropylamino)cyclohexyl)-6-methyl-5-(8-methyl-[1,2,4]triazolo[1,5-a]pyridin-6-yl)-1,3-dihydro-2H-benzo[d]imidazol-2-one]",11.1
11,"COc1cc(-c2cc3[nH]c(=O)n(C4CCC(N5CCSCC5)CC4)c3cc2C(C)C)cn2ncnc12 (stereo not shown) [Example 250, 6-isopropyl-5-(8-methoxy-[1,2,4]triazolo[1,5-a]pyridin-6-yl)-1-(4-thiomorpholinocyclohexyl)-1,3-dihydro-2H-benzo[d]imidazol-2-one]",0.36
12,"Cc1c(-c2cc3[nH]c(=O)n(C4CCC(N5CC(F)C5)CC4)c3cc2C(C)C)cn2ncnc2c1C (stereo not shown) [Example 280, 5-(7,8-dimethyl-[1,2,4]triazolo[1,5-a]pyridin-6-yl)-1-(4-(3-fluoroazetidin-1-yl)cyclohexyl)-6-isopropyl-1,3-dihydro-2H-benzo[d]imidazol-2-one]",2.75
13,"Cc1c(-c2cc3[nH]c(=O)n(C4CCC(N5CCC(F)(F)CC5)CC4)c3cc2C(C)C)cn2ncnc2c1C (single isomer, unassigned) [Example 275, 1-(4-(4,4-difluoropiperidin-1-yl)cyclohexyl)-5-(7,8-dimethyl-[1,2,4]triazolo[1,5-a]pyridin-6-yl)-6-isopropyl-1,3-dihydro-2H-benzo[d]imidazol-2-one]",0.81
14,"COc1cc(-c2cc3[nH]c(=O)n(C4CCNCC4)c3cc2C)cn2ncnc12 [1 E, 5-(8-methoxy-[1,2,4]triazolo[1,5-a]pyridin-6-yl)-6-methyl-1-(piperidin-4-yl)-1H-benzo[d]imidazol-2(3H)-one, TFA]",225
15,"COc1c(C)c(-c2cc3[nH]c(=O)n(C4CCC(NCC5(S(C)(=O)=O)CC5)CC4)c3cc2C(C)C)cn2ncnc12 (single isomer, unassigned) [Example 259]",1.85
16,"COc1cc(-c2cc3[nH]c(=O)n(C4CCC(N5C[C@@H](F)[C@@H](F)C5)CC4)c3cc2C(C)C)cn2ncnc12 (single isomer, unassigned) [Example 292]",0.13
17,"COc1cc(-c2cc3[nH]c(=O)n(C4CCC(N5CCC(F)(F)CC5)CC4)c3cc2C(C)C)cn2ncnc12 (single isomer, unassigned) [Example 246, 1-(4-(4,4-difluoropiperidin-1-yl)cyclohexyl)-6-isopropyl-5-(8-methoxy-[1,2,4]triazolo[1,5-a]pyridin-6-yl)-1,3-dihydro-2H-benzo[d]imidazol-2-one]",0.16
18,COCCNC1CCC(n2c(=O)[nH]c3cc(-c4cn5ncnc5c(OC)c4C)c(C(C)C)cc32)CC1 (stereo not shown) [Example 257],1.38
19,"COc1cc(-c2cc3[nH]c(=O)n(C4CCC(N5CC[C@H](F)C5)CC4)c3cc2C(C)C)cn2ncnc12 (stereo partly drawn) [Example 287, (S)-1-(4-(3-fluoropyrrolidin-1-yl)cyclohexyl)-6-isopropyl-5-(8-methoxy-[1,2,4]triazolo[1,5-a]pyridin-6-yl)-1,3-dihydro-2H-benzo[d]imidazol-2-one]",1.66
20,"COc1cc(-c2cc3[nH]c(=O)n([C@@H]4CCCNC4)c3cc2C)cn2ncnc12 [1 EH, (R)-5-(8-methoxy-[1,2,4]triazolo[1,5-a]pyridin-6-yl)-6-methyl-1-(piperidin-3-yl)-1,3-dihydro-2H-benzo[d]imidazol-2-one]",49.6
21,"Cc1cc2c(cc1-c1cc(C)c3ncnn3c1)[nH]c(=O)n2[C@H]1CC[C@@H](NC(C)C)CC1 [Example 22, 1-((1s,4s)-4-(isopropylamino)cyclohexyl)-6-methyl-5-(8-methyl-[1,2,4]triazolo[1,5-a]pyridin-6-yl)-1,3-dihydro-2H-benzo[d]imidazol-2-one]",4.08
22,"COC[C@@H]1CCN(C2CCC(n3c(=O)[nH]c4cc(-c5cc(OC)c6ncnn6c5)c(C(C)C)cc43)CC2)C1 (single isomer, unassigned) [Example 291]",1.86
23,"COc1c(C)c(-c2cc3[nH]c(=O)n(C4CCC(N5CCCOCC5)CC4)c3cc2C(C)C)cn2ncnc12 (single isomer, unassigned) [Example 262, 1-(4-(1,4-oxazepan-4-yl)cyclohexyl)-6-isopropyl-5-(8-methoxy-7-methyl-[1,2,4]triazolo[1,5-a]pyridin-6-yl)-1,3-dihydro-2H-benzo[d]imidazol-2-one]",0.68
24,"CCc1cc2c(cc1-c1cc(OC)c3ncnn3c1)[nH]c(=O)n2[C@@H]1CCCNC1 [119 FB, (R)-6-ethyl-5-(8-methoxy-[1,2,4]triazolo[1,5-a]pyridin-6-yl)-1-(piperidin-3-yl)-1,3-dihydro-2H-benzo[d]imidazol-2-one]",6.99
25,"Cc1cc2c(cc1-c1cc(C)c3ncnn3c1)[nH]c(=O)n2[C@H]1CC[C@@H](N(C)C)CC1 [Example 19, 1-((1s,4s)-4-(dimethylamino)cyclohexyl)-6-methyl-5-(8-methyl-[1,2,4]triazolo[1,5-a]pyridin-6-yl)-1,3-dihydro-2H-benzo[d]imidazol-2-one]",32

# Reference: patent US12187723B2 (BRISTOL-MYERS SQUIBB COMPANY, priority 2019, dated 2025)
